The term AUC denotes the area under the concentration-time curve, a measure of exposure. Higher therefore signals high exposure. As a reminder, the IC50 is the concentration needed to halve the response being measured.

Data set [1] can be described thus: Pharmacokinetics in mice (exposure, AUC). In kind it is in vivo. The conditions noted are these: male, CD1, plasma; mouse, 30 mg/kg, po. As for the experimental part:
This study was performed with 42 naïve male CD1 mice (18-20 g, 4-5 weeks old). Mice are obtained from Janvier, Le Genest St Isle, France.
A controlled environment was maintained in the room with optimal conditions of approximately 15 air changes per hour, a temperature of 22±2 C, a relative humidity of 30-70% and a 12 hour light/12 hour dark cycle (nightlight during the night period).
Pelleted diet for rodents (UAR A04C-10) was used and was provided ad libitum. Before p.o. dosing, the animals are deprived of food for at least 12 hours before compound administration and 4 hours after administration. All animals had free access to tap water.
[…] The i.v. bolus administration is given with a dose volume of 5 mL/kg and the oral administration is given with a dose volume of 10 mL/kg. Actual dose volumes are based on the mean of 10 body weights.
The vehicle used to formulate compounds for oral administration is methylcellulose in water (0.5% in water)
From all animals approximately 500 μL blood samples are collected by intra-cardiac puncture under gaseous anesthesia and placed into tubes containing Li-heparin as anticoagulant. Blood samples are collected at various time points (i.v.: 0.05, 0.25, 0.5, 1, 3, 5 and 8 hours after dosing; p.o.: 0.25, 0.5, 1, 3, 5, 8 and 24 hours after dosing). Each mouse is sampled once and euthanized.
Blood is kept on ice. Within 1 hour after sampling, blood is centrifuged at 5,000 rpm for 10 min at 4° C. Immediately after centrifugation, the resulting plasma samples are collected into polypropylene tubes and are kept frozen at −20° C. pending bioanalysis.
Plasma samples are assayed by LC-MS/MS. Plasma proteins are precipitated with an excess of methanol containing the internal standard and the corresponding supernatant is injected on a C18 column. Analytes are eluted out the HPLC system by increasing the percentage of the organic mobile phase. An API4000 mass spectrometer (AB Sciex™) is used for the detection and quantification.
Pharmacokinetic parameters are calculated by non-compartmental analysis using WinNonlin® software (Pharsight, version 5.2).

For a further data set, the target named is T1, EphA4 (UniProt Ref: P54764) (Homo sapiens, UniProt P54764).
T1 construct: purchased Reaction Biology
T1 sequence (P54764 20-986): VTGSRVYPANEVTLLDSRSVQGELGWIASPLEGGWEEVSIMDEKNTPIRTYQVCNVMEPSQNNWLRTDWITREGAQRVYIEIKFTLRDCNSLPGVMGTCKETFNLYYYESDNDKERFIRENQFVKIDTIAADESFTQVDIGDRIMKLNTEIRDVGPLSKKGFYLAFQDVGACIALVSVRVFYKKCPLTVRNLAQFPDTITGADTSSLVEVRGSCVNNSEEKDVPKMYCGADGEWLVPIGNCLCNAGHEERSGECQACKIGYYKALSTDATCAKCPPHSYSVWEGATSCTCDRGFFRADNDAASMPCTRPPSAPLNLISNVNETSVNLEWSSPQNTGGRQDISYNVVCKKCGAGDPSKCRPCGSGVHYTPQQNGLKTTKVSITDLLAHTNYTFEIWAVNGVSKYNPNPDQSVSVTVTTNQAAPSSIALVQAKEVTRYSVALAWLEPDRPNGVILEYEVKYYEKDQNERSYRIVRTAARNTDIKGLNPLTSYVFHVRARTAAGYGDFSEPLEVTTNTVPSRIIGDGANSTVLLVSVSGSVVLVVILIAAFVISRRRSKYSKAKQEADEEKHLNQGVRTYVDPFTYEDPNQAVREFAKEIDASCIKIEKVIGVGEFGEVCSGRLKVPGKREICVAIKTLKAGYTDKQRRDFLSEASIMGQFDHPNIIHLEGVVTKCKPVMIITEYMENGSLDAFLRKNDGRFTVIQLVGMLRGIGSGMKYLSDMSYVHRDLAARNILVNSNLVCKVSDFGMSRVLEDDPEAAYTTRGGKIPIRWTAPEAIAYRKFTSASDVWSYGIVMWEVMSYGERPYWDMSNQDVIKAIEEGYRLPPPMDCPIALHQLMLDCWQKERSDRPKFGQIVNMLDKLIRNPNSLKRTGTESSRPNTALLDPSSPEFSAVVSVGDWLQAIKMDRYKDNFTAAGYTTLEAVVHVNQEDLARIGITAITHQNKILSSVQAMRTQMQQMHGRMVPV
Nature of the data set: EphA4 assay (Reaction Biology HotSpot radioactive kinase assay). In kind it is biochemical. The conditions noted are these: EphA4 potency; ATP 10 μM. As for the experimental part: Inhibition of EphA4 (UniProt Ref: P54764) by a test compound is determined by a commercially available Reaction Biology proprietary nanoliter radioactive HotSpot^SM assay (Reaction Biology, One great valley parkway, Suite 2, Malvern Pa., 19355, USA). The principle of the assay consists of the measurement of incorporated ^33P into poly[Glu:Tyr] (4:1) (0.2 mg/mL) when the substrate is phosphorylated by the enzyme using [^33P]-γ-ATP and ATP (10 μM).
(§1) To determine the IC50, a serial dilution of compound is tested starting from 10 or 3 μM (highest dilution) with a 1/3 dilution.

The next data set concerns the target T2, EphA2 (UniProt Ref: P29317) (Homo sapiens, UniProt P29317).
T2 construct: purchased Reaction Biology
Kind of data set: EphA2 assay (Reaction Biology HotSpot radioactive kinase assay). In kind it is biochemical. The following applies: ATP 10 μM; read-out: EphA2 potency IC50. The procedure, abridged: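 Radiometric HotSpot assay measuring ^33P incorporation from [^33P]-γ-ATP into poly[Glu:Tyr] (4:1) (0.2 mg/mL) with 10 μM ATP. IC50 from serial 1/3 dilutions starting at 10 or 3 μM.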

A further data set deals with T3, EphB4 (UniProt Ref: Q541P7) (Homo sapiens, UniProt P54760).
T3 construct: purchased Reaction Biology
T3 sequence (P54760 16-987): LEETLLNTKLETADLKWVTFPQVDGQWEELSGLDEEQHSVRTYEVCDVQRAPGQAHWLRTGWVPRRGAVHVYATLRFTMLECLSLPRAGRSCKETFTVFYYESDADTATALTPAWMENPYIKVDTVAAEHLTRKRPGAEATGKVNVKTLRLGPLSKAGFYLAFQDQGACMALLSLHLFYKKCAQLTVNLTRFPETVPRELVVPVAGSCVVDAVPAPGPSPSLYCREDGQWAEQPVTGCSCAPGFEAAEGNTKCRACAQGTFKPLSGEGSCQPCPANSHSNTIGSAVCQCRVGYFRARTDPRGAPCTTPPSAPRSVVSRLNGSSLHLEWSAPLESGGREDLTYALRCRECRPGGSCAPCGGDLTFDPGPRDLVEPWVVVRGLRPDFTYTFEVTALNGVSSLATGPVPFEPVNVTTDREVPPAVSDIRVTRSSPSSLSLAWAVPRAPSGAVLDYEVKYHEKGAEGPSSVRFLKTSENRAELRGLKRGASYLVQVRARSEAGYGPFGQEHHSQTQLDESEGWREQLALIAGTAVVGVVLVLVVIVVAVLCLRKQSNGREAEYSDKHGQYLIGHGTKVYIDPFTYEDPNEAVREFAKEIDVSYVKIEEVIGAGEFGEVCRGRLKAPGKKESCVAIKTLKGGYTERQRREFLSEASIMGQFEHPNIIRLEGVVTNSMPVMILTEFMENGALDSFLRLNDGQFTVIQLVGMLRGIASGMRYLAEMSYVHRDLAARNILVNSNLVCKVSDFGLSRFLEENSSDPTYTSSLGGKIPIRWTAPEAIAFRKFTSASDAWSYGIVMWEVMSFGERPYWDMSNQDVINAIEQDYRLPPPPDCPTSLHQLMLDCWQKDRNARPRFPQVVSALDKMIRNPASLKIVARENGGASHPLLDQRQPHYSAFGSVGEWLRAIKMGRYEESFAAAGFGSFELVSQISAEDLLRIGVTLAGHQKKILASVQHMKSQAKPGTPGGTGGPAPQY
Nature of the data set: EphB4 assay (Reaction Biology HotSpot radioactive kinase assay). The conditions noted are these: ATP 10 μM; read-out: EphB4 potency IC50. In kind it is biochemical. As to the method:
Inhibition of EphB4 (UniProt Ref: Q541P7) by a test compound is determined by a commercially available Reaction Biology proprietary nanoliter radioactive HotSpot^SM assay (Reaction Biology, One great valley parkway, Suite 2, Malvern Pa., 19355, USA). The principle of the assay consists of the measurement of incorporated ^33P into poly[Glu:Tyr] (4:1) (0.2 mg/mL) when the substrate is phosphorylated by the enzyme using [^33P]-γ-ATP and ATP (10 μM).
as §1

T2 sequence (P29317 24-976): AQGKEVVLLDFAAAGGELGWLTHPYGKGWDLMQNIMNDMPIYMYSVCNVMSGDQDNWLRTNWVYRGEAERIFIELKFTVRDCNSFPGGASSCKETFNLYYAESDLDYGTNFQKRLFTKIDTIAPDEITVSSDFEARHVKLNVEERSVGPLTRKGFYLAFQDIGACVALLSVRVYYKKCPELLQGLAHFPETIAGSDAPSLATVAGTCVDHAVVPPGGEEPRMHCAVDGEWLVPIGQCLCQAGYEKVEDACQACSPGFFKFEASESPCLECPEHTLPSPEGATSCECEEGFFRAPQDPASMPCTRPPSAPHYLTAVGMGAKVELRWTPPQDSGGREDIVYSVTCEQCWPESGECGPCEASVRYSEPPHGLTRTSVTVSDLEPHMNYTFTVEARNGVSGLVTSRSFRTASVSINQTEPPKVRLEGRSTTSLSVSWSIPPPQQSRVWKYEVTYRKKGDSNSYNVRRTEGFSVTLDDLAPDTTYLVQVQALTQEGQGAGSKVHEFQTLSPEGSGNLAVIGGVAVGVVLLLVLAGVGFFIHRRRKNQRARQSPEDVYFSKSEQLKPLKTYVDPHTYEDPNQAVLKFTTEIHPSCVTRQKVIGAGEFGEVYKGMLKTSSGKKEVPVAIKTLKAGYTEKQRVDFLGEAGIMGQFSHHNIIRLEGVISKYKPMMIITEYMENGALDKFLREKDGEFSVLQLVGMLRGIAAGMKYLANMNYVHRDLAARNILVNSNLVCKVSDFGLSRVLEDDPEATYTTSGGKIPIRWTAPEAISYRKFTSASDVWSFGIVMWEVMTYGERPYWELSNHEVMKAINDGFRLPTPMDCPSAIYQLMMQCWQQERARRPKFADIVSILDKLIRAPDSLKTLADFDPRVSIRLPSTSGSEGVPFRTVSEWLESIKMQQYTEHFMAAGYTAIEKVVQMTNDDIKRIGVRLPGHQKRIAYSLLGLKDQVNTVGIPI

With `COc1cc(OC)cc(C(=O)Nc2ccc(C)c(-c3ccc4c([C@H](C)O)n[nH]c4n3)c2)c1` [Compound 47, N-{3-[3-((S)-1-Hydroxy-ethyl)-1H-pyrazolo[3,4-b]pyridin-6-yl]-4-methyl-phenyl}-3,5-dimethoxy-benzamide], the AUC in data set [1] was 39000 ng·h/mL. Also, the IC50 is 50 to 100 nM at EphA4, 0.01 to 25 nM at EphA2 and 0.01 to 25 nM on EphB4.

The values are drawn from US9062051B2, “Compounds and pharmaceutical compositions thereof for the treatment of proliferative disorders” (GALAPAGOS NV, priority 2014, dated 2015).
